Data reported in patent US7538131B2, “2-{-3-′2-(phenyl)-oxazol-4-ylmethoxymethyl-cyclohexylmethoxy}-propionic acid derivatives useful as peroxisome proliferator-activated receptor (PPAR) ligands for the treatment of hyperlipidemia and diabetes” (Sanofi-Aventis Deutschland GmbH, priority 2004, dated 2009).

Experiments:
human PPARgamma = biological target: T1, human PPARgamma (Homo sapiens, UniProt P37231); assay: Cellular PPARgamma assay (transiently transfected HEK cells, luciferase reporter); format: cell-based; details: GAL4-humanPPARgammaLBD, firefly/Renilla luciferase ratio, 48 h
T1 construct: human PPARgamma receptor (amino acids 1152-Y475); expressed in transfected cells; host or cells: HEK cells (transiently transfected, pcDNA3-GAL4-humanPPARgammaLBD)
T1 sequence (P37231 182-477 isoform P37231-2 limits assumed): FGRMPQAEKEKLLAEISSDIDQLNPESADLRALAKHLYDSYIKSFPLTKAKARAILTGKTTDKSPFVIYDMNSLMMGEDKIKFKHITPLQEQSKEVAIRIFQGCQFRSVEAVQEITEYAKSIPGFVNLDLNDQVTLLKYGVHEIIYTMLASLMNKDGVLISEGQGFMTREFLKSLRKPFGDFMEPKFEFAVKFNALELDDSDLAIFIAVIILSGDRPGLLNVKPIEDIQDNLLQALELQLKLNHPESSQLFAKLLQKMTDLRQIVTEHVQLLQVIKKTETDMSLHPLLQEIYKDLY
Text: 4) Determination of EC50 Values of PPAR Agonists in the Cellular PPARgamma Assay
A transient transfection system is employed to determine the cellular PPARgamma activity of PPAR agonists. It is based on the use of a luciferase reporter plasmid (pGL3basic-5xGAL4-TK) and of a PPARgamma expression plasmid (pcDNA3-GAL4-humanPPARgammaLBD). Both plasmids are transiently transfected into human embryonic kidney cells (HEK cells). There is then expression in these cells of the fusion protein GAL4-humanPPARgammaLBD which binds to the GAL4 binding sites of the reporter plasmid. In the presence of a PPARgamma-active ligand, the activated fusion protein GAL4-humanPPARgammaLBD induces expression of the luciferase reporter gene, which can be detected in the form of a chemiluminescence signal after addition of a luciferase substrate. As a difference from the stably transfected PPARalpha reporter cell line, in the cellular PPARgamma assay the two components (luciferase reporter plasmid and PPARgamma expression plasmid) are transiently transfected into HEK cells because stable and permanent expression of the PPARgamma fusion protein is cytotoxic.
The luciferase reporter plasmid pGL3basic-5xGAL4-TK is based on the vector pGL3basic from Promega. The reporter plasmid is prepared by cloning five binding sites of the yeast transcription factor GAL4 (each binding site with the sequence 5′-CTCGGAGGACAGTACTCCG-3′), together with a 160 bp-long thymidine kinase promoter section (Genbank Accession #AF027128) 5′-upstream into pGL3basic. 3′-downstream of the thymidine kinase promoter is the complete luciferase gene from Photinus pyralis (Genbank Accession # Ml 5077), which is already a constituent of the plasmid pGL3basic used. The cloning and sequencing of the reporter plasmid pGL3basic-5xGAL4-TK took place in analogy to the description in Sambrook J. et. al. (Molecular cloning, Cold Spring Harbor Laboratory Press, 1989).
The PPARgamma expression plasmid pcDNA3-GAL4-humanPPARgammaLBD was prepared by first cloning the cDNA coding for amino acids 1-147 of the yeast transcription factor GAL4 (Genbank Accession #P04386) into the plasmid pcDNA3 (from Invitrogen) 3′-downstream of the cytomegalovirus promoter. Subsequently, the cDNA of the ligand-binding domain (LBD) of the human PPARgamma receptor (amino acids […]; Accession #g1480099) 3′-downstream of the GAL4 DNA binding domain was cloned. Cloning and sequencing of the PPARgamma expression plasmid pcDNA3-GAL4-humanPPARgammaLBD again took place in analogy to the description in Sambrook J. et. al. (Molecular cloning, Cold Spring Harbor Laboratory Press, 1989). Besides the luciferase reporter plasmid pGL3basic-5xGAL4-TK and the PPARgamma expression plasmid pcDNA3-GAL4-humanPPARgammaLBD, also used for the cellular PPARgamma assay are the reference plasmid pRL-CMV (from Promega) and the plasmid pBluescript SK(+) from Stratagene. All four plasmids were prepared using a plasmid preparation kit from Qiagen, which ensured a plasmid quality with a minimal endotoxin content, before transfection into HEK cells.
The activity of PPARgamma agonists is determined in a 4-day assay which is described below. Before the transfection, HEK cells were cultivated in DMEM medium (#41965-039, Invitrogen) which was mixed with the following additions: 10% FCS (#16000-044, Invitrogen),1% penicillin-streptomycin solution (#15140-122, Invitrogen) and 2 mM L-glutamine (#25030-024, Invitrogen).
Solution A, a transfection mixture which contains all four plasmids previously described in addition to DMEM medium, was prepared. […]

human PPARalpha = biological target: T2, human PPARalpha (Homo sapiens, UniProt Q07869); assay: Cellular PPARalpha assay (stably transfected HEK luciferase reporter cell line); format: cell-based; details: GR-GAL4-humanPPARalpha-LBD, 24 h
T2 construct: human PPARalpha receptor (amino acids S167-Y468); expressed in transfected cells; host or cells: HEK cells (stably transfected, pcDNA3, CMV promoter)
T2 sequence (Q07869 167-468): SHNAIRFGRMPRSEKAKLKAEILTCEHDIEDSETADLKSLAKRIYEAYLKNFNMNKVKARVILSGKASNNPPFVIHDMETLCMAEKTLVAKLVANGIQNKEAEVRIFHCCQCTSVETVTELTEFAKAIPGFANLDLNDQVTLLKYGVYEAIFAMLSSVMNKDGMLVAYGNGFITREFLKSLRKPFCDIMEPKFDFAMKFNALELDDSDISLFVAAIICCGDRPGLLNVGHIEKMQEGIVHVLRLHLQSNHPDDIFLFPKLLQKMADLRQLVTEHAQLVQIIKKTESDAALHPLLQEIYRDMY
Description: 1) Determination of EC50 Values of PPAR Agonists in the Cellular PPARalpha Assay
The activity of the novel compounds of the present invention was tested as follows The potency of substances which bind to human PPARalpha and activate it in an agonistic manner is analyzed using a stably transfected HEK cell line (HEK=human embryo kidney) which is referred to here as PPARalpha reporter cell line. It contained two genetic elements, a luciferase reporter element (pdeltaM-GAL4-Luc-Zeo) and a PPARalpha fusion protein (GR-GAL4-humanPPARalpha-LBD) which mediates expression of the luciferase reporter element depending on a PPARalpha ligand. The stably and constitutively expressed fusion protein GR-GAL4-humanPPARalpha-LBD binds in the cell nucleus of the PPARalpha reporter cell line via the GAL4 protein portion to the GAL4 DNA binding motifs 5′-upstream of the luciferase reporter element which was stably integrated in the genome of the cell line. There is only little expression of the luciferase reporter gene without addition of a PPARalpha ligand if fatty acid-depleted fetal calf serum (cs-FCS) is used in the assay. PPARalpha ligands bind and activate the PPARalpha fusion protein and thereby bring about expression of the luciferase reporter gene. The luciferase which is formed can be detected by means of chemiluminescence via an appropriate substrate.
The PPARalpha reporter cell line was prepared in two steps. Firstly, the luciferase reporter element was constructed and stably transfected into HEK cells. For this purpose, five binding sites of the yeast transcription factor GAL4 (in each case 5′-CGGAGTACTGTCCTCCGAG-3′) were cloned in 5′-upstream of a 68 bp-long minimal MMTV promoter (Genbank Accession #V01175). The minimal MMTV promoter section contains a CCAAT box and a TATA element in order to enable efficient transcription by RNA polymerase II. The cloning and sequencing of the GAL4-MMTV construct took place in analogy to the description of Sambrook J. et. al. (Molecular Cloning, Cold Spring Harbor Laboratory Press, 1989). Which is hereby incorporated by reference herein.
The complete Photinus pyralis luciferase gene (Genbank Accession #M15077) was cloned in 3′-downstream of the GAL4-MMTV element. After sequencing, the luciferase reporter element consisting of five GAL4 binding sites, MMTV promoter and luciferase gene was subcloned into a plasmid which confers zeozin resistance in order to obtain the plasmid pdeltaM-GAL4-Luc-Zeo. This vector was transfected into HEK cells in accordance with the statements in Ausubel, F.M. et al. (Current Protocols in Molecular Biology, Vol. 1-3, John Wiley & Sons, Inc., 1995).
In a second step, the PPARalpha fusion protein (GR-GAL4-humanPPARalpha-LBD) was introduced into the stable cell clone described. For this purpose, initially the cDNA coding for the N-terminal 76 amino acids of the glucocorticoid receptor (Genbank Accession # P04150) was linked to the cDNA section coding for amino acids 1-147 of the yeast transcription factor GAL4 (Genbank Accession #P04386). The cDNA of the ligand-binding domain of the human PPARalpha receptor (amino acids S167-Y468; Genbank Accession #S74349) was cloned in at the 3′ end of this GR-GAL4 construct. The fusion construct prepared in this way (GR-GAL4-humanPPARalpha-LBD) was subcloned into the plasmid pcDNA3 (from Invitrogen) in order to enable constitutive expression therein by the cytomegalovirus promoter. This plasmid was linearized with a restriction endonuclease and stably transfected into the previously described cell clone containing the luciferase reporter element. The finished PPARalpha reporter cell line which contains a luciferase reporter element and constitutively expresses the PPARalpha fusion protein (GR-GAL4-humanPPARalpha-LBD) was isolated by selection with zeozin (0.5 mg/ml) and G418 (0.5 mg/ml).
The activity of PPARalpha agonists was determined in a 3-day assay which is described below: […]

EC50 (human PPARgamma) [nM]	EC50 (human PPARalpha) [nM]	Molecule
71.4	149	Cc1oc(-c2ccc(Oc3ccccc3)cc2)nc1COC[C@H]1CCC[C@@H](COC(C)(C)C(=O)O)C1 [Example 20, 2-Methyl-2-{(1R,3S)-3-[5-methyl-2-(4-phenoxyphenyl)oxazol-4-ylmethoxymethyl]cyclohexylmethoxy}propionic acid]
199	12.7	CC(C)c1oc(-c2cccc(C(F)(F)F)c2)nc1COC[C@H]1CCC[C@@H](COC(C)(C)C(=O)O)C1 [Example 16, 2-{(1R,3S)-3-[5-Isopropyl-2-(3-trifluoromethylphenyl)oxazol-4-ylmethoxymethyl]cyclohexylmethoxyl}-2-methylpropionic acid]
672	381	COc1cccc(-c2nc(COC[C@@H]3CCC[C@H](COC(C)(C)C(=O)O)C3)c(C(C)C)o2)c1 [Example 10, 2-{1(1S,3R)-3-[5-Isopropyl-2-(3-methoxyphenyl)oxazol-4-ylmethoxymethyl]cyclohexylmethoxy}-2-methylpropionic acid]
133	5.5	Cc1ccc(-c2nc(COC[C@H]3CCC[C@@H](COC(C)(C)C(=O)O)C3)c(C(C)C)o2)cc1C [Example 12, 2-{(1R,3S)-3-[2-(3,4-Dimethylphenyl)-5-isopropyloxazol-4-ylmethoxymethyl]cyclohexylmethoxy}-2-methylpropionic acid]
1560	3.6	CCc1oc(-c2ccc(C(F)(F)F)cc2)nc1COC[C@@H]1CCC[C@H](COC(C)(C)C(=O)O)C1 [Example 1, 2-{(1S,3R)-3-[5-Ethyl-2-(4-trifluoromethylphenyl)oxazol-4-ylmethoxymethyl]cyclohexylmethoxy}-2-methylpropionic acid]
192	1.8	CCc1oc(-c2ccc3ccccc3c2)nc1COC[C@H]1CCC[C@@H](COC(C)(C)C(=O)O)C1 [Example 19, 2-[(1R,3S)-3-(5-Ethyl-2-naphthalen-2-yl-oxazol-4-ylmethoxymethyl)cyclohexylmethoxy]-2-methylpropionic acid]

The remaining lines, values behind:

Molecule	EC50 (human PPARgamma) [nM]	EC50 (human PPARalpha) [nM]
CC(C)c1oc(-c2ccc3ccccc3c2)nc1COC[C@H]1CCC[C@@H](COC(C)(C)C(=O)O)C1 [Example 14, 2-{(1R,3S)-3-[5-Isopropyl-2-(naphth-2-yl)oxazol-4-ylmethoxymethyl]cyclohexylmethoxy}-2-methylpropionic acid]	127	18.7
Cc1ccc(-c2nc(COC[C@@H]3CCC[C@H](COC(C)(C)C(=O)O)C3)c(C(C)C)o2)cc1C [Example 8, 2-{(1S,3R)-3-[2-(3,4-Dimethylphenyl)-5-isopropyloxazol-4-ylmethoxymethyl]cyclohexylmethoxy}-2-methylpropionic acid]	1500	37.5
CC(C)c1oc(-c2ccc(C(C)(C)C)cc2)nc1COC[C@@H]1CCC[C@H](COC(C)(C)C(=O)O)C1 [Example 9, 2-{(1S,3R)-3-[2-(4-tert-butylphenyl)-5-isopropyloxazol-4-ylmethoxymethyl]cyclohexylmethoxy}-2-methylpropionic acid]	492	48.8
2-{(1R,3S)-3-[5-Isopropyl-2-(3-methoxyphenyl)oxazol-4-ylmethoxymethyl]cyclohexylmethoxy}-2-methylpropionic acid [Example 15]	150	71.7
CC(C)Cc1ccc(-c2nc(COC[C@H]3CCC[C@@H](COC(C)(C)C(=O)O)C3)c(C(C)C)o2)cc1 [Example 17, 2-{(1R,3S)-3-[2-(4-Isobutylphenyl)-5-isopropyloxazol-4-ylmethoxymethyl]cyclohexylmethoxy}-2-methylpropionic acid]	109	42
CC(C)c1oc(-c2ccc(C(F)(F)F)cc2)nc1COC[C@@H]1CCC[C@H](COC(C)(C)C(=O)O)C1 [Example 6, 2-{(1S,3R)-3-[5-Isopropyl-2-(4-trifluoromethylphenyl)oxazol-4-ylmethoxymethyl]cyclohexylmethoxy}-2-methylpropionic acid]	1880	19.3
